Results on two molecules are retold here after patent US20200368315A1, “ANTIMICROBIAL PEPTIDES AND ADMIXTURES THEREOF SHOWING ANTIMICROBIAL ACTIVITY AGAINST GRAM-NEGATIVE PATHOGENS” (priority 2017, published 2020).

Values after ≈ are worked out from the molar mass of the structure shown. Values joined by “and” are separate entries in the source; they are usually repeats but may differ in a detail not shown here. Equal entries are not always repeated. Where two headings read alike, the source gives them in different places. Bounds are passed on as bounds.

Series [1] relates to L. lactis MG1363. The series can be described thus: microbe, parasite or virus in culture. The settings on record: Lactococcus lactis, MG1363, read-out: MIC value of antimicrobial compounds alone.
Series [2] concerns E. coli LMG15862. The gist of the method:
(§1)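 Chequerboard broth microdilution in MHB of two agents in combination, final volume 100 uL, with growth and sterility controls. MICs alone and in combination give FICI = MICac/MICa + MICbc/MICb; synergy FICI≤0.5, additive 0.5–1, indifferent 1–2, antagonism >2.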

In series [3] the test system is A. baumannii LMG01041. The gist of the method:
as §1

Series [4] relates to E. aerogenes LMG 02094. Put shortly: as §1
For series [5], the system named is P. aeruginosa LMG 6395. Put shortly:
as §1

Series [6] concerns K. pneumoniae LMG20218. The gist of the method:
as §1

Series [7] has as its system P. aeruginosa LMG 6395. The series can be described thus: microbe, parasite or virus in culture. In kind it is cell-based, Pseudomonas aeruginosa. The following applies: for MIC: Pseudomonas aeruginosa. Put shortly: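 Bacteria grown in LB broth or on LB agar at 37° C, then diluted 1:100 in MHB to give 5*10^5 CFU/mL final. Compounds were halved serially across the plate and inoculated. Visible growth was then scored, and the lowest inhibitory concentration was taken as MIC.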

Series [8] in a line: Cell viability (ATP levels, CellTiter-Glo). The following applies: human. The method, then:
ATP levels were measured by adding 50 μL of CellTiter-Glo reagent to each well and after 5 minutes of incubation luminescence was measured with SpectraMax i3.
96-well plates were seeded with HEK293 cells at concentration of 30,000 cells per well in 100 μL of DMEM growth media supplemented with 1% NEAA and 10% FBS. Border wells were filled with 100 μL of sterile PBS. The next day compounds were added to cells. Compounds were first 2× diluted in 96-well V-bottom plate in PBS. After that compounds were mixed with media in 96-deep-well plate for final concentrations. Growth media from 3 plates was aspirated and replaced with 100 μL of prepared compounds. Compounds were tested in duplicate. ATP levels were measured by adding 50 μL of CellTiter-Glo reagent to each well and after 5 minutes of incubation luminescence was measured with SpectraMax i3. […] The potential effects were then calculated and presented as IC50 values (μg/mL).

Series [9] deals with K. pneumoniae LMG20218. In kind it is cell-based, Klebsiella pneumoniae. The following applies: nisin + GNP. The gist of the method: (§2)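 Checkerboard MHB microdilution; nisin and GNPs diluted two-fold from respective MICs; bacteria added, growth and sterility controls run. FICI from combined vs single-agent MICs: synergy ≤0.5, additive 0.5–1, indifferent 1–2, antagonism >2.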

Series [10] relates to P. aeruginosa LMG 6395. In kind it is cell-based, Pseudomonas aeruginosa. The settings on record: nisin + GNP. The gist of the method:
as §2

In series [11] the test system is E. coli LMG15862. In kind it is cell-based, Escherichia coli. The following applies: nisin + GNP. Put shortly: as §2
The subject of series [12] is E. aerogenes LMG 02094. In kind it is cell-based, Enterobacter aerogenes. The settings on record: nisin + GNP. Put shortly: as §2
The test system of series [13] is A. baumannii LMG01041. In kind it is cell-based, Acinetobacter baumannii. The following applies: nisin + GNP. Put shortly:
as §2

In series [14] the test system is L. lactis MG1363. The following applies: L. lactis MG1363.

`CN[C@H](CC(C)C)C(=O)N[C@H]1C(=O)N[C@@H](CC(N)=O)C(=O)N[C@H]2C(=O)N[C@H]3C(=O)N[C@H](C(=O)N[C@H](C(=O)O)c4cc(O)cc(O)c4-c4cc3ccc4O)[C@H](O)c3ccc(c(Cl)c3)Oc3cc2cc(c3O[C@@H]2O[C@H](CO)[C@@H](O)[C@H](O)[C@H]2O[C@H]2C[C@](C)(N)[C@H](O)[C@H](C)O2)Oc2ccc(cc2Cl)[C@H]1O` [Vancomycin, reference compound]: the MIC stood at 0.125 µM (≈ 0.181 µg/mL) in the series with L. lactis MG1363 [1]; 128 µM (≈ 186 µg/mL) in the series on P. aeruginosa LMG 6395 [7] (LMG6395, read-out: MIC value); 128 µM (≈ 186 µg/mL) in the series with P. aeruginosa LMG 6395 [7] (LMG6395, read-out: MIC value of antimicrobial compounds alone). The MICa turned out to be 64 µM in the series with E. coli LMG15862 [2] (MIC of vancomycin alone); 32 µM with A. baumannii LMG01041 [3] (MIC of vancomycin alone); 192 µM with E. aerogenes LMG 02094 [4] (MIC of vancomycin alone); 128 µM in the series with P. aeruginosa LMG 6395 [5] (MIC of vancomycin alone); 128 µM in the series with K. pneumoniae LMG20218 [6] (MIC of vancomycin alone). Also, the IC50 in [8] is > 44.2 µM and > 64 µg/mL.
Take `CC[C@@H](C)[C@@H](NC(=O)[C@@H](CCCNC(=N)N)NC(=O)[C@@H](CCCNC(=N)N)NC(=O)[C@@H](Cc1ccccc1)NC(=O)[C@@H](CC(C)C)NC(=O)[C@@H](CCCNC(=N)N)NC(=O)[C@H](N)CCCNC(=N)N)C(=O)N[C@H](CC(C)C)C(=O)N[C@H](CCCNC(=N)N)C(=O)N[C@H](Cc1c[nH]c2ccccc12)C(=O)N[C@H](CC(C)C)C(N)=O` [GNP-D6]: the FICI is 0.75 and 0.5 in the series on E. coli LMG15862 [2] (vancomycin + GNP); 0.5 and 0.625 with A. baumannii LMG01041 [3] (vancomycin + GNP); 0.667 in the series on E. aerogenes LMG 02094 [4] (vancomycin + GNP); 0.75 in the series on P. aeruginosa LMG 6395 [5] (vancomycin + GNP); 0.75 and 0.5 with K. pneumoniae LMG20218 [6] (vancomycin + GNP); 0.375 in the series on K. pneumoniae LMG20218 [9]. Moreover, the FICI with P. aeruginosa LMG 6395 [10] is recorded as 0.25; in the series on E. coli LMG15862 [11] it was 0.375; with E. aerogenes LMG 02094 [12] it was 0.375; in the series on A. baumannii LMG01041 [13] it was 0.313. Moreover, the MIC value in the series with P. aeruginosa LMG 6395 [7] (alone, P. aeruginosa LMG 6395) was found to be 2 µM (≈ 3.17 µg/mL). Also, the “MIC value of antimicrobial compounds alone” value in the series on L. lactis MG1363 [14] was 2 µM.

One may read the IC50 as the concentration that gives 50% inhibition. A higher IC50 goes with lower potency.
